Assay [1] can be described thus: Inhibition of HIF-1 transcriptional activity in human HeLa cells transfected with hypoxia response element-dependent luciferase reporter gene under hypoxic conditions. Type of assay: cell-based. A general note: Reporter assays use an easily measured gene product as a stand-in for the process of interest.
The test system of assay [2] is HeLa. In words: Growth inhibition of human HeLa cells by MTT assay. The assay is classed as functional, cell-based. (In general: Formazan colour is commonly taken as a measure of viable cells.)
Assay [3] relates to HeLa. The experiment in a line: Inhibition of HIF-1-alpha protein expression in human HeLa cells at 100 uM by Western blot analysis. The assay is classed as functional, cell-based. For orientation: In western blotting, separated proteins are transferred to a membrane and probed.
For assay [4], the system named is HeLa. In words: Inhibition of HIF-1 transcriptional signaling in human HeLa cells assessed as reduction in CA9 protein expression at 100 uM under hypoxia conditions by Western blot analysis. Type of assay: cell-based.
The test system of assay [5] is HeLa. In words: Inhibition of HIF-1-alpha mRNA expression in human HeLa cells under hypoxia conditions at 100 uM by qPCR analysis. The assay is classed as functional, cell-based.

This is an account of results in ChEMBL document CHEMBL5143551, “Synthesis of sp3-rich chiral bicyclo[3.3.1]nonanes for chemical space expansion and study of biological activities” (Bioorg Med Chem, 2022).

Structures are written as SMILES. Activity calls are given as the source filed them. The rule behind the calls is not given here.

Usually IC50 stands for the concentration that gives 50% inhibition. Low values mean higher potency, high ones lower potency.

In the case of `CC(C)CC(=O)O[C@@H]1CC[C@@]2(OC(=O)Cc3ccccc3)CC1[C@@H](NCc1ccccc1)[C@@H]1O[C@@H]12`, the IC50 in assay [1] (Homo sapiens, HeLa) was 31 µM; in the assay on HeLa [2] (Homo sapiens, HeLa) it was 39.5 µM.

As to `CC(C)CN[C@@H]1C2C[C@](OC(=O)Cc3ccccc3)(CC[C@H]2OC(=O)Cc2ccccc2)[C@H]2O[C@@H]12`, the IC50 in assay [1] (Homo sapiens, HeLa) was 31.7 µM; with HeLa [2] (Homo sapiens, HeLa), greater than 100 µM.

For the compound `O=C(Cc1ccccc1)O[C@@H]1CC[C@@]2(OC(=O)Cc3ccccc3)CC1[C@@H](NCc1ccccc1)[C@@H]1O[C@@H]12` (mixture of isomers), the IC50 in assay [1] (Homo sapiens, HeLa) turned out to be 19.5 µM; with HeLa [2] (Homo sapiens, HeLa), 14.2 µM.

For the compound `CC(C)CC(=O)O[C@@H]1CC[C@@]2(OC(=O)CC(C)C)CC1[C@@H](NCc1ccccc1)[C@@H]1O[C@@H]12`, the IC50 in assay [1] (Homo sapiens, HeLa) worked out at 24.7 µM; in the assay on HeLa [2] (Homo sapiens, HeLa) it was 9.4 µM.

For `CC(C)CN[C@@H]1C2C[C@](OC(=O)Cc3ccccc3)(CC[C@H]2OC(=O)CC(C)C)[C@H]2O[C@@H]12` (stereo in doubt; 16f) [listing 1 of 2 here], the IC50 was found to be 19 µM in assay [1] (hela) and 76.1 µM in the assay on HeLa [2] (hela).

Consider `CC(C)CN[C@@H]1C2C[C@](OC(=O)CC(C)C)(CC[C@H]2OC(=O)Cc2ccccc2)[C@H]2O[C@@H]12`, for which the IC50 in assay [1] (Homo sapiens, HeLa) was determined as 20.4 µM; in the assay on HeLa [2] (Homo sapiens, HeLa) it was 89.1 µM. Further, the inhibition result in the assay with HeLa [3] and in the assay with HeLa [4] was “Active” throughout.

Turning to `CC(C)CN[C@@H]1C2C[C@](OC(=O)Cc3ccccc3)(CC[C@H]2OC(=O)CC(C)C)[C@H]2O[C@@H]12` (stereo in doubt; 16f) [listing 2 of 2 here], the inhibition entry in the assay on HeLa [5], with HeLa [3] and in the assay with HeLa [4] was “Active” throughout.

Consider `CC(C)CN[C@@H]1C2C[C@](OC(=O)Cc3ccccc3)(CC[C@H]2OC(=O)CC(C)C)[C@H]2O[C@@H]12` (stereo in doubt), for which the IC50 in assay [1] (hela) worked out at 46.4 µM; in the assay on HeLa [2] (hela), 32.3 µM.

In the case of `CC(C)CC(=O)O[C@]12CC[C@@H](OC(=O)Cc3ccccc3)C(C1)[C@@H](NCc1ccccc1)[C@@H]1O[C@@H]12` (mixture of isomers), the IC50 in assay [1] (Homo sapiens, HeLa) was 17.2 µM; in the assay with HeLa [2] (Homo sapiens, HeLa), 3.5 µM.

With `CC(C)CN[C@@H]1C2C[C@](OC(=O)CC(C)C)(CC[C@H]2OC(=O)CC(C)C)[C@H]2O[C@@H]12`, the IC50 worked out at 21.7 µM in assay [1] (Homo sapiens, HeLa) and 79.6 µM in the assay on HeLa [2] (Homo sapiens, HeLa). In addition, the inhibition entry in the assay with HeLa [3] and in the assay on HeLa [4] was “Active” throughout.
